Experimental data: patent US8362075B2, “Cyclohexyl sulphones for treatment of cancer” (Merck Sharp & Dohme Corp., priority 2005, dated 2013)

Test system: Cells expressing Notch (ALL-SIL, DND-41, HPB-ALL or TALL-1)
Experiment: Assay for Cell Cycle Arrest (propidium iodide, FACS)
Assay type: cell-based
Settings: concentrations up to 10 μM, incubation typically 4-8 days
Method: Assay for Cell Cycle Arrest Cells expressing Notch (ALL-SIL, DND-41, HPB-ALL or TALL-1) (Weng et al, Science, 306 (2004), 269-71) were incubated in the presence or absence of a compound of the instant invention (e.g. the compound of Example 39 below) at concentrations up to 10 μM. At the end of the incubation (typically 4-8 days), the cells were collected, fixed in 70% ethanol on ice for >2 hours, washed, then labelled for 15 min at 37° C. with propidium iodide (0.2 mg/ml) (PI) in the presence of 0.1% Triton X100 and 0.2 mg/ml RNase and subjected to FACS analysis. […] Assay for Apoptosis

In the case of O=C(O)CC[C@H]1CC[C@@](c2cc(F)ccc2F)(S(=O)(=O)c2ccc(Cl)cc2)CC1 [Example 39, cis-4-[(4-chlorophenyl)sulfonyl]-4-(2,5-difluorophenyl)cyclohexanepropanoic acid], the “cell cycle populations versus untreated controls” value is reported as “severe loss of G2- and S-phase populations, consistent with G0/G1 arrest”.
